Results taken from publication PMC12676312, “Evaluation of Antiviral Activity of N‑Phenyl-2-Phenoxyacetamides Derived from Carvacrol against Mayaro Virus: In Vitro Analyses and In Silico Insights” (ACS Omega, 2025).

Key:
Mayaro virus (MAYV) [1] = test: Virucidal assay (plaque reduction); format: cell-based, Mayaro virus (ATCC VR 66, strain TR 4675); settings: Vero cells
Description: To determine the action of the molecule on viral particles, Vero cells cultured in 24-well plates (10^5 cells/well) at 80% confluence were infected with MAYV (100 PFU/well) previously incubated for 1 h with different concentrations of the compound at 37 °C (100 μL/well). Plates were maintained under agitation for 1 h, and afterward, the viral suspension was replaced with 1 mL of semisolid medium (DMEM + 1% carboxymethylcellulose). Plates were incubated for 48 h at 37 °C and 5% CO2 and subsequently fixed with 10% formaldehyde followed by staining with 5% crystal violet solution for plaque counting. DMEM was used as the negative control, and 100 PFU of untreated MAYV was used as the positive control.

Mayaro virus (MAYV) [2] = test: Pretreatment assay (plaque reduction); format: cell-based, Mayaro virus (ATCC VR 66, strain TR 4675); settings: Vero cells pretreated 3 h with different concentrations, then infected
Description: To determine whether the compound exerts a protective effect on cells prior to viral infection, Vero cells cultured in 24-well plates (10^5 cells/well) were treated for 3 h at 37 °C with 100 μL of the compound at different concentrations, with periodic agitation. Subsequently, the medium was replaced with 100 μL of a solution containing MAYV (100 PFU), and the plates were incubated under constant agitation for 1 h. The viral suspension was then replaced with a semisolid medium (DMEM + 1% carboxymethylcellulose), and the plates were incubated for 48 h at 37 °C under a 5% CO2 atmosphere. Cells were fixed with 10% formaldehyde and stained with 5% crystal violet solution for plaque counting. DMEM was used as the negative control, and 100 PFU of MAYV was used as the positive control (untreated).

Mayaro virus (MAYV) [3] = test: Adsorption inhibition assay (plaque reduction); format: cell-based, Mayaro virus (ATCC VR 66, strain TR 4675); settings: 4 °C for 2 h, Vero cells, read-out: Decrease in the number of lysis plaques (adsorption inhibition)
Description: To assess whether the compound interferes with the viral adsorption step, 24-well plates (10^5 cells/well) were cooled at 4 °C for 30 min. The culture medium was removed, and cells were washed with cold PBS, followed by the addition of 100 μL of a solution containing MAYV (100 PFU) and different concentrations of the compound. Cells were incubated at 4 °C for 2 h and subsequently washed with cold citrate buffer (0.1 M citric acid and 0.1 M sodium citrate) and PBS. Semisolid medium (DMEM + 1% carboxymethylcellulose) was then added, and plates were incubated at 37 °C for 48 h. Cells were fixed and stained for plaque counting as previously described. DMEM was used as the negative control, and 100 PFU of MAYV served as the positive control (untreated).

Mayaro virus (MAYV) [4] = test: Internalization inhibition assay (plaque reduction); format: cell-based, Mayaro virus (ATCC VR 66, strain TR 4675); settings: concentrations between 500 μM and 62.5 μM; Vero cells
Description: To evaluate whether the compound affects the internalization step, 24-well plates (10^5 cells/well) were cooled at 4 °C for 30 min. The culture medium was removed, and cells were incubated with MAYV (100 PFU/well) at 4 °C for 2 h. Cells were washed with cold PBS, and 1 mL of DMEM was added followed by incubation for 5 min at 37 °C. Subsequently, different concentrations of the compound were added and incubated for 1 h at 37 °C. Cells were then washed with cold PBS and citrate buffer. Finally, semisolid medium (DMEM + 1% carboxymethylcellulose) was added, and plates were incubated at 37 °C for 48 h. Cells were fixed and stained for plaque counting. DMEM was used as the negative control, and 100 PFU of MAYV was used as the positive control (untreated).

Mayaro virus (MAYV) [5] = test: Post-treatment assay (plaque reduction); format: cell-based, Mayaro virus (ATCC VR 66, strain TR 4675); settings: Vero cells treated after MAYV infection, any tested concentration
Description: To determine whether the compound acts after viral infection, Vero cells cultured in 24-well plates (10^5 cells/well) were initially infected with 100 μL of MAYV (100 PFU) and incubated under constant agitation for 1 h. The viral suspension was removed and replaced with 100 μL of the compound at different concentrations, followed by incubation for 3 h at 37 °C with periodic agitation. Subsequently, the medium was replaced with semisolid medium (DMEM + 1% carboxymethylcellulose). After 48 h of incubation at 37 °C and 5% CO2, the cells were fixed with 10% formaldehyde and stained with 5% crystal violet for plaque counting. For the negative control, DMEM was used, and for the positive control, 100 PFU of MAYV (untreated).

Vero cells = tested on: Vero cells; design: method as in previous study of our group; settings: ref previous study of our group; cited from earlier work
Mayaro virus (MAYV) [6] = format: cell-based, Mayaro virus (ATCC VR 66, strain TR 4675); settings: Vero cells infected with MAYV (MOI 1) pre-treated 1 h with compound at its CC50-based concentration or 500 μM; 48 h; MTT; infected control 0%, uninfected 100%
Description: Vero cells (ATCC CCL-81) were used in all in vitro assays. Cells were cultured in DMEM medium supplemented with 2% fetal bovine serum (FBS), penicillin, and streptomycin, and incubated at a constant temperature of 37 °C under a controlled atmosphere of 5% CO2. Mayaro virus (ATCC VR 66, strain TR 4675) was initially propagated in C6/36 cells cultured in L-15 medium supplemented with 2% FBS, incubated at 28 °C. For viral titer determination, Vero cells (10^5 cells/well) were seeded in 24-well plates and cultured for approximately 24 h to achieve 80% confluence. Subsequently, the culture medium was replaced with 10-fold serial dilutions of the viral aliquot. The plate was maintained under constant agitation for 1 h to facilitate viral adsorption. The medium was then replaced with a semisolid medium (incomplete DMEM and 1% carboxymethylcellulose at a 2:1 ratio). Plates were incubated for 48 h under the aforementioned conditions, and cytopathic effects were monitored. After this period, cells were fixed with 10% formaldehyde and stained with 5% crystal violet solution for plaque counting. The mean number of plaques was used to determine the number of plaque-forming units (PFU), and the viral titer was expressed as PFU/mL.
To evaluate the antiviral potential of the molecules under study, an MTT (3-(4,5-dimethylthiazol-2-yl)-2,5-diphenyltetrazolium bromide) reduction assay was employed. Vero cells were seeded in 96-well plates (10^4 cells/well) and cultured until reaching approximately 80% confluence. […] For compounds with undetermined CC50 values, a concentration of 500 μM (the highest concentration tested in the previous study) was used. After incubation, the viral suspension was removed, DMEM medium was added, and cells were incubated for 48 h at 37 °C under a 5% CO2 atmosphere. Cell viability was determined by absorbance reading at 540 nm after solubilization of formazan crystals with DMSO, with the positive control (Vero cells infected with MAYV) defined as 0% cell viability and the negative control (uninfected Vero cells) defined as 100% cell viability. The compound providing the greatest cellular protection was selected for subsequent assays.

MAYV = tested on: MAYV; design: method as in Langedries et al.; settings: Vero cells; ref Langedries et al.; cited from earlier work

Structure (SMILES) | CC50 (Vero cells) [µM] | Antiviral screening (cell viability %) (Mayaro virus (MAYV) [6]) [%] | further results
Cc1ccc(C(C)C)cc1OCC(=O)Nc1ccc(F)cc1 [Compound 9] | > 500 |  | Reduction in the number of lysis plaques (virucidal activity) (Mayaro virus (MAYV) [1]; 500 μM, MAYV pre-incubated 1 h with compound): approximately 40%; Virucidal activity (number of lysis plaques) (Mayaro virus (MAYV) [1]; concentrations ranging from 500 μM to 31.25 μM): significant reduction in the number of lysis plaques; Number of lysis plaques, pretreatment of cells (Mayaro virus (MAYV) [2]): No reduction in the number of lysis plaques; inhibition at 500 µM (Mayaro virus (MAYV) [3]): ~58%; Reduction in the number of lysis plaques (internalization inhibition) (Mayaro virus (MAYV) [4]): about 50%; Viral activity, post-treatment (Mayaro virus (MAYV) [5]): no reduction in viral activity
Cc1ccc(C(C)C)cc1OCC(=O)Nc1cccc(Br)c1 [Compound 5] | > 500 | 50.0 | 
Cc1ccc(C(C)C)cc1OCC(=O)Nc1ccc(Br)cc1 [Compound 6] | 182 | 0 | 
Cc1ccc(C(C)C)cc1OCC(=O)Nc1ccccc1Br [Compound 4] | 372 | 0 | 
Cc1ccc(C(C)C)cc1OCC(=O)Nc1ccc(Cl)cc1 [Compound 3] | 449 | 0 | 
Cc1ccc(C(C)C)cc1OCC(=O)Nc1ccccc1 [Compound 10] | > 500 | 0 | 
Cc1ccc(C(C)C)cc1OCC(=O)Nc1ccccc1F [Compound 7] | > 500 | 22.83 | 
Cc1ccc(C(C)C)cc1OCC(=O)Nc1ccccc1Cl [Compound 1] | 200 | 62.5 | 
NC(=O)c1ncn([C@@H]2O[C@H](CO)[C@@H](O)[C@H]2O)n1 [ribavirin] |  |  | Antiviral activity against MAYV (MAYV): no antiviral activity
